One experiment concerns the target T1, TGF-β1 (Mus musculus, UniProt P04202).
T1 construct: an in vivo system wherein TGF-β1 acts as supposed antagonist of the cytokines induced in this model; from tissue; host or cells: living BALB/c mice (Harlan), endogenous TGF-β1; read-out in serum
The experiment can be described thus: In vivo activity of recombinant adenovirus for mouse IL-12: IFN-γ and NO levels in serum. On the set-up: species or system BALB/c mice. From the text: This example studies the effect of peptide p144 in an in vivo system wherein TGF-β1 acts as supposed antagonist of the cytokines induced in this model. The production of mouse IL-12 by the expression of a transgen included in the recombinant adenovirus, induces an inflammatory state through the induction of a cascade of factors, including IFN-γ and nitric oxide. TGF-β1 has been described as an inhibitor of the production and biological action of IL-12, IFN-γ and NO (Pardoux C. et al., 1999; Schini V. B. et al., 1992). […]
Blood samples were extracted from both groups on days 6 and 9 after immunization for the subsequent quantification of IFN-γ and NO levels in serum.
The quantity of IFN-γ was measured by a commercial ELISA (Mouse IFN-γ Duoset ELISA Development System, Genzyme, Cambridge and OPTEIA Mouse IFN-γ Ser, Pharmingen, San Diego, USA) in accordance with the manufacturer's instructions. The results were expressed as pg/ml of IFN-γ and using a standard curve of known quantities of IFN-γ. […]
NO2* emission is in the red and infrared region of the light spectrum and is detected by a red-sensitive photomultiplier tube. This signal is quantified and the data obtained are collected and processed by a computer.

Experiment [1] concerns CT26 cells. Put plainly: Subcutaneous CT26 tumour model after AH1 immunization. Format: in vivo, BALB/c mice. To be noted: 50 μg AH1 day 0; 5×10^5 CT26 s.c. day 10; day 10-30 PS or 50 μg p144 every 48 hours i.p. Here is the method: Next, the effect of p144 was studied on a tumour progression model which was less aggressive than the intravenous administration of CT26. In this new model, mice were immunized with 50 μg of AH1 on day 0 and ten days later they were administered 5×10^5 CT26 cells by subcutaneous route. Furthermore, with the aim of testing the effect of blocking TGF-β1 on protection against CT26 tumour cells, another two groups of mice (groups 2 and 3) were treated on alternate days by intraperitoneal route between days 10-30 with 50 μg of p144.

For experiment [2], the system named is CT26 cells. Put plainly: Pulmonary metastasis model (intravenous CT26), survival. Format: in vivo, BALB/c mice. To be noted: 5×10^5 CT26 i.v. on day 10; 50 μg AH1 in FIA s.c. day 0; p144 50 μg i.p. alternate days, days 4-20 or 10-20. From the text: It is speculated that the neutralization of TGF-β1, once the immune response has been induced, could have a beneficial effect on the evolution thereof.
It is known from previous experience that immunization with only DTc AH1 produced a certain delay in the appearance of tumours after the intravenous administration of CT26 cells. For this reason, in a survival experiment, the inclusion of p144 was compared at different times after immunization with AH1. Thus, the animals in group (i) just received the administration of CT26 cells, the animal groups (ii), (iii) and (iv) were immunized on day 0 by subcutaneous route with 50 μg of AH1 in FIA (Freund's incomplete adjuvant) and they were then administered 5×10^5 CT26 cells by intravenous route on day 10. Group (iii) further received 50 μg of p144 in 500 μl of PS (physiological serum) by intraperitoneal route on alternate days between days 4 and 20. Group (iv), as with group (iii), received 50 μg of p144 in 500 μl of PS by intraperitoneal route on alternate days, only between days 10 and 20.

Experiment [3] deals with CT26 cells. Put plainly: Tumour growth of subcutaneous CT26 in AH1-immunized mice treated with peptides. Format: in vivo, balb-c mice. The procedure: GROUPS: 4 groups of 7 female balb-c mice, of 6 weeks old/group.
AH1+FIA s.c.+p144 (50 μg i.p./dose/mouse) AH1+FIA s.c.+p17(1-11) (50 μg i.p./dose/mouse) DESIGN: AH1+FIA: […]; Peptides: from day −6 on alternate days until day 10: Tumour model volume: Each 3 days from day 10 to day 41. Challenge on day 0 with CT26 (500000 cells/mouse s.c. in the flank).
REDUCTION IN THE MEAN TUMOUR VOLUME BY GROUPS TREATED WITH PEPTIDES: The effect of peptides p144 and p17(1-11)Am was studied in a tumour progression model. In this model, mice were immunized with 50 μg of AH1 10 days before the administration of 5×10^5 CT26 cells. In order to verify the effect of blocking the TGF-β1 on the protection against CT tumour cells, another two groups of mice were treated on alternate days by intraperitoneal route between days 6 and 10 (50 μg/mouse/48 h) with peptides p144 and p17(1-11)Am. […] This protection reached 100% of the animals in the case of p144 (FIG. 16).

Entries after “also recorded” stand apart in the source; their conditions may differ.

T1 sequence (P04202 279-390 limits assumed): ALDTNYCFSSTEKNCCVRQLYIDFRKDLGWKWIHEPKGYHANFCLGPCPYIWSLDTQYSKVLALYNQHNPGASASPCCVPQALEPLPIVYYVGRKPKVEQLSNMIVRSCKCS

Consider “p144: peptide inhibiting TGF-β1 whose amino acid sequence corresponds to SEQ ID NO: 1 (TSLDASIIWAMMQN; Synthetic Construct from human TGB-Beta1 type III receptor.Domain730-743)”, for which, in the experiment with TGF-β1 (RAd IL-12 1×10^8 pfu i.p. plus p144 daily 100 μg for 5 days, versus RAd IL-12 alone), the “serum levels of IFN-γ” value is given as “increases”. Further, the NO serum levels result in the experiment with TGF-β1 (day 6, RAd IL-12 1×10^8 pfu i.p. plus p144, versus RAd IL-12 alone) is listed as “greater level”. For the same substance, the “Animals protected on day 50” value in the experiment on CT26 cells [1] is on record as 4/10. In the experiment on CT26 cells [2], the survival / mortality result is on record as “reinforces the survival effect”. The tumour growth result with CT26 cells [3] (50 μg/mouse/48 h i.p. between days 6 and 10, s.c. CT26 on day 0, AH1 immunization 10 days before) is “protection against tumour growth; also recorded: delay tumour growth”. Also, in the experiment on CT26 cells [3] (measured on day 42 after subcutaneous administration of tumour cells), the “protection against tumour growth, share of animals” value is recorded as 100%.

The record behind these values is patent US20090263410A1, “USE OF TGF-B1 INHIBITOR PEPTIDES IN THE PREPARATION OF AN IMMUNE RESPONSE MODULATING AGENT” (Proyecto De Biomedicina Cima, S.L., priority 2005, published 2009).
